System: Crude diglycosidase
Assay: Examination of substrate concentration in the conversion into isoflavone aglycons by diglycosidase using soybean materials;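 further: percent of the isoflavone family total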
Assay type: biochemical, Penicillium multicolor IAM7153
How it was run: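 Reaction at 55° C, shaken, pH 4.0 (20 mM acetate), using crude diglycosidase from a 1.88 AU/mL enzyme solution on soy flour, soymilk, defatted soybean or soy protein concentrate at 2, 5, 10, 20 or 30% (w/v). Isoflavone aglycons quantified by HPLC of ethanol extracts at 0, 1, 3, 6 h.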

COc1cc2c(=O)c(-c3ccc(O)cc3)coc2cc1O [glycitein]
Decomposition efficiency: ratio of each glycoside/aglycon within its isoflavone family (concentrated soybean protein, substrate concentration 2%, heat treatment of enzyme no, reaction time 0 h): 11.6% | Decomposition efficiency: ratio of each glycoside/aglycon within its isoflavone family (concentrated soybean protein, substrate concentration 2%, heat treatment of enzyme no, reaction time 1 h): 85.3% | Decomposition efficiency: ratio of each glycoside/aglycon within its isoflavone family (concentrated soybean protein, substrate concentration 2%, heat treatment of enzyme no, reaction time 3 h): 94.4% | Decomposition efficiency: ratio of each glycoside/aglycon within its isoflavone family (concentrated soybean protein, substrate concentration 2%, heat treatment of enzyme no, reaction time 6 h): 100.0% | Decomposition efficiency: ratio of each glycoside/aglycon within its isoflavone family (concentrated soybean protein, substrate concentration 2%, heat treatment of enzyme yes, reaction time 6 h): 11.2% | Decomposition efficiency: ratio of each glycoside/aglycon within its isoflavone family (concentrated soybean protein, substrate concentration 5%, heat treatment of enzyme no, reaction time 0 h): 11.2% | Decomposition efficiency: ratio of each glycoside/aglycon within its isoflavone family (concentrated soybean protein, substrate concentration 5%, heat treatment of enzyme no, reaction time 1 h): 72.4% | Decomposition efficiency: ratio of each glycoside/aglycon within its isoflavone family (concentrated soybean protein, substrate concentration 5%, heat treatment of enzyme no, reaction time 3 h): 81.9% | Decomposition efficiency: ratio of each glycoside/aglycon within its isoflavone family (concentrated soybean protein, substrate concentration 5%, heat treatment of enzyme no, reaction time 6 h): 87.4% | Decomposition efficiency: ratio of each glycoside/aglycon within its isoflavone family (concentrated soybean protein, substrate concentration 5%, heat treatment of enzyme yes, reaction time 6 h): 11.3% | Decomposition efficiency: ratio of each glycoside/aglycon within its isoflavone family (concentrated soybean protein, substrate concentration 10%, heat treatment of enzyme no, reaction time 0 h): 11.0% | Decomposition efficiency: ratio of each glycoside/aglycon within its isoflavone family (concentrated soybean protein, substrate concentration 10%, heat treatment of enzyme no, reaction time 1 h): 66.8% | Decomposition efficiency: ratio of each glycoside/aglycon within its isoflavone family (concentrated soybean protein, substrate concentration 10%, heat treatment of enzyme no, reaction time 3 h): 73.5% | Decomposition efficiency: ratio of each glycoside/aglycon within its isoflavone family (concentrated soybean protein, substrate concentration 10%, heat treatment of enzyme no, reaction time 6 h): 75.8% | Decomposition efficiency: ratio of each glycoside/aglycon within its isoflavone family (concentrated soybean protein, substrate concentration 10%, heat treatment of enzyme yes, reaction time 6 h): 11.1% | Decomposition efficiency: ratio of each glycoside/aglycon within its isoflavone family (concentrated soybean protein, substrate concentration 20%, heat treatment of enzyme no, reaction time 0 h): 10.8% | Decomposition efficiency: ratio of each glycoside/aglycon within its isoflavone family (concentrated soybean protein, substrate concentration 20%, heat treatment of enzyme no, reaction time 1 h): 51.2% | Decomposition efficiency: ratio of each glycoside/aglycon within its isoflavone family (concentrated soybean protein, substrate concentration 20%, heat treatment of enzyme no, reaction time 3 h): 66.2% | Decomposition efficiency: ratio of each glycoside/aglycon within its isoflavone family (concentrated soybean protein, substrate concentration 20%, heat treatment of enzyme no, reaction time 6 h): 69.2% | Decomposition efficiency: ratio of each glycoside/aglycon within its isoflavone family (concentrated soybean protein, substrate concentration 20%, heat treatment of enzyme yes, reaction time 6 h): 11.1% | Decomposition efficiency: ratio of each glycoside/aglycon within its isoflavone family (concentrated soybean protein, substrate concentration 30%, heat treatment of enzyme no, reaction time 0 h): 8.2% | Decomposition efficiency: ratio of each glycoside/aglycon within its isoflavone family (concentrated soybean protein, substrate concentration 30%, heat treatment of enzyme no, reaction time 1 h): 61.5% | Decomposition efficiency: ratio of each glycoside/aglycon within its isoflavone family (concentrated soybean protein, substrate concentration 30%, heat treatment of enzyme no, reaction time 3 h): 68.9% | Decomposition efficiency: ratio of each glycoside/aglycon within its isoflavone family (concentrated soybean protein, substrate concentration 30%, heat treatment of enzyme no, reaction time 6 h): 71.4% | Decomposition efficiency: ratio of each glycoside/aglycon within its isoflavone family (concentrated soybean protein, substrate concentration 30%, heat treatment of enzyme yes, reaction time 6 h): 8.2% | Decomposition efficiency: ratio of each glycoside/aglycon within its isoflavone family (defatted soybean, substrate concentration 2%, heat treatment of enzyme no, reaction time 0 h): not detected | Decomposition efficiency: ratio of each glycoside/aglycon within its isoflavone family (defatted soybean, substrate concentration 2%, heat treatment of enzyme no, reaction time 1 h): not detected | Decomposition efficiency: ratio of each glycoside/aglycon within its isoflavone family (defatted soybean, substrate concentration 2%, heat treatment of enzyme no, reaction time 3 h): not detected | Decomposition efficiency: ratio of each glycoside/aglycon within its isoflavone family (defatted soybean, substrate concentration 2%, heat treatment of enzyme no, reaction time 6 h): not detected | Decomposition efficiency: ratio of each glycoside/aglycon within its isoflavone family (defatted soybean, substrate concentration 2%, heat treatment of enzyme yes, reaction time 6 h): not detected | Decomposition efficiency: ratio of each glycoside/aglycon within its isoflavone family (defatted soybean, substrate concentration 5%, heat treatment of enzyme no, reaction time 0 h): 41.6% | Decomposition efficiency: ratio of each glycoside/aglycon within its isoflavone family (defatted soybean, substrate concentration 5%, heat treatment of enzyme no, reaction time 1 h): 58.4% | Decomposition efficiency: ratio of each glycoside/aglycon within its isoflavone family (defatted soybean, substrate concentration 5%, heat treatment of enzyme no, reaction time 3 h): 68.2% | Decomposition efficiency: ratio of each glycoside/aglycon within its isoflavone family (defatted soybean, substrate concentration 5%, heat treatment of enzyme no, reaction time 6 h): 80.5% | Decomposition efficiency: ratio of each glycoside/aglycon within its isoflavone family (defatted soybean, substrate concentration 5%, heat treatment of enzyme yes, reaction time 6 h): 41.5% | Decomposition efficiency: ratio of each glycoside/aglycon within its isoflavone family (defatted soybean, substrate concentration 10%, heat treatment of enzyme no, reaction time 0 h): 47.0% | Decomposition efficiency: ratio of each glycoside/aglycon within its isoflavone family (defatted soybean, substrate concentration 10%, heat treatment of enzyme no, reaction time 1 h): 45.3% | Decomposition efficiency: ratio of each glycoside/aglycon within its isoflavone family (defatted soybean, substrate concentration 10%, heat treatment of enzyme no, reaction time 3 h): 63.4% | Decomposition efficiency: ratio of each glycoside/aglycon within its isoflavone family (defatted soybean, substrate concentration 10%, heat treatment of enzyme no, reaction time 6 h): 72.1% | Decomposition efficiency: ratio of each glycoside/aglycon within its isoflavone family (defatted soybean, substrate concentration 10%, heat treatment of enzyme yes, reaction time 6 h): 42.4% | Decomposition efficiency: ratio of each glycoside/aglycon within its isoflavone family (roasted soy flour, substrate concentration 2%, heat treatment of enzyme no, reaction time 0 h): 16.2% | Decomposition efficiency: ratio of each glycoside/aglycon within its isoflavone family (roasted soy flour, substrate concentration 2%, heat treatment of enzyme no, reaction time 1 h): 100.0% | Decomposition efficiency: ratio of each glycoside/aglycon within its isoflavone family (roasted soy flour, substrate concentration 2%, heat treatment of enzyme no, reaction time 3 h): 100.0% | Decomposition efficiency: ratio of each glycoside/aglycon within its isoflavone family (roasted soy flour, substrate concentration 2%, heat treatment of enzyme no, reaction time 6 h): 100.0% | Decomposition efficiency: ratio of each glycoside/aglycon within its isoflavone family (roasted soy flour, substrate concentration 2%, heat treatment of enzyme yes, reaction time 6 h): 12.2% | Decomposition efficiency: ratio of each glycoside/aglycon within its isoflavone family (roasted soy flour, substrate concentration 5%, heat treatment of enzyme no, reaction time 0 h): 11.4% | Decomposition efficiency: ratio of each glycoside/aglycon within its isoflavone family (roasted soy flour, substrate concentration 5%, heat treatment of enzyme no, reaction time 1 h): 88.2% | Decomposition efficiency: ratio of each glycoside/aglycon within its isoflavone family (roasted soy flour, substrate concentration 5%, heat treatment of enzyme no, reaction time 3 h): 92.8% | Decomposition efficiency: ratio of each glycoside/aglycon within its isoflavone family (roasted soy flour, substrate concentration 5%, heat treatment of enzyme no, reaction time 6 h): 100.0% | Decomposition efficiency: ratio of each glycoside/aglycon within its isoflavone family (roasted soy flour, substrate concentration 5%, heat treatment of enzyme yes, reaction time 6 h): 11.4% | Decomposition efficiency: ratio of each glycoside/aglycon within its isoflavone family (roasted soy flour, substrate concentration 10%, heat treatment of enzyme no, reaction time 0 h): 5.5% | Decomposition efficiency: ratio of each glycoside/aglycon within its isoflavone family (roasted soy flour, substrate concentration 10%, heat treatment of enzyme no, reaction time 1 h): 83.3% | Decomposition efficiency: ratio of each glycoside/aglycon within its isoflavone family (roasted soy flour, substrate concentration 10%, heat treatment of enzyme no, reaction time 3 h): 90.3% | Decomposition efficiency: ratio of each glycoside/aglycon within its isoflavone family (roasted soy flour, substrate concentration 10%, heat treatment of enzyme no, reaction time 6 h): 100.0% | Decomposition efficiency: ratio of each glycoside/aglycon within its isoflavone family (roasted soy flour, substrate concentration 10%, heat treatment of enzyme yes, reaction time 6 h): 9.9% | Decomposition efficiency: ratio of each glycoside/aglycon within its isoflavone family (roasted soy flour, substrate concentration 20%, heat treatment of enzyme no, reaction time 0 h): 8.6% | Decomposition efficiency: ratio of each glycoside/aglycon within its isoflavone family (roasted soy flour, substrate concentration 20%, heat treatment of enzyme no, reaction time 1 h): 77.1% | Decomposition efficiency: ratio of each glycoside/aglycon within its isoflavone family (roasted soy flour, substrate concentration 20%, heat treatment of enzyme no, reaction time 3 h): 86.2% | Decomposition efficiency: ratio of each glycoside/aglycon within its isoflavone family (roasted soy flour, substrate concentration 20%, heat treatment of enzyme no, reaction time 6 h): 90.0% | Decomposition efficiency: ratio of each glycoside/aglycon within its isoflavone family (roasted soy flour, substrate concentration 20%, heat treatment of enzyme yes, reaction time 6 h): 9.1% | Decomposition efficiency: ratio of each glycoside/aglycon within its isoflavone family (roasted soy flour, substrate concentration 30%, heat treatment of enzyme no, reaction time 0 h): 8.8% | Decomposition efficiency: ratio of each glycoside/aglycon within its isoflavone family (roasted soy flour, substrate concentration 30%, heat treatment of enzyme no, reaction time 1 h): 71.6% | Decomposition efficiency: ratio of each glycoside/aglycon within its isoflavone family (roasted soy flour, substrate concentration 30%, heat treatment of enzyme no, reaction time 3 h): 75.6% | Decomposition efficiency: ratio of each glycoside/aglycon within its isoflavone family (roasted soy flour, substrate concentration 30%, heat treatment of enzyme no, reaction time 6 h): 86.3% | Decomposition efficiency: ratio of each glycoside/aglycon within its isoflavone family (roasted soy flour, substrate concentration 30%, heat treatment of enzyme yes, reaction time 6 h): 8.7% | Decomposition efficiency: ratio of each glycoside/aglycon within its isoflavone family (soymilk, substrate concentration 2%, heat treatment of enzyme no, reaction time 0 h): not detected | Decomposition efficiency: ratio of each glycoside/aglycon within its isoflavone family (soymilk, substrate concentration 2%, heat treatment of enzyme no, reaction time 1 h): 100.0% | Decomposition efficiency: ratio of each glycoside/aglycon within its isoflavone family (soymilk, substrate concentration 2%, heat treatment of enzyme no, reaction time 3 h): 100.0% | Decomposition efficiency: ratio of each glycoside/aglycon within its isoflavone family (soymilk, substrate concentration 2%, heat treatment of enzyme no, reaction time 6 h): 100.0% | Decomposition efficiency: ratio of each glycoside/aglycon within its isoflavone family (soymilk, substrate concentration 2%, heat treatment of enzyme yes, reaction time 6 h): not detected | Decomposition efficiency: ratio of each glycoside/aglycon within its isoflavone family (soymilk, substrate concentration 5%, heat treatment of enzyme no, reaction time 0 h): not detected | Decomposition efficiency: ratio of each glycoside/aglycon within its isoflavone family (soymilk, substrate concentration 5%, heat treatment of enzyme no, reaction time 1 h): 75.4% | Decomposition efficiency: ratio of each glycoside/aglycon within its isoflavone family (soymilk, substrate concentration 5%, heat treatment of enzyme no, reaction time 3 h): 92.5% | Decomposition efficiency: ratio of each glycoside/aglycon within its isoflavone family (soymilk, substrate concentration 5%, heat treatment of enzyme no, reaction time 6 h): 100.0% | Decomposition efficiency: ratio of each glycoside/aglycon within its isoflavone family (soymilk, substrate concentration 5%, heat treatment of enzyme yes, reaction time 6 h): not detected | Decomposition efficiency: ratio of each glycoside/aglycon within its isoflavone family (soymilk, substrate concentration 10%, heat treatment of enzyme no, reaction time 0 h): 6.4% | Decomposition efficiency: ratio of each glycoside/aglycon within its isoflavone family (soymilk, substrate concentration 10%, heat treatment of enzyme no, reaction time 1 h): 73.6% | Decomposition efficiency: ratio of each glycoside/aglycon within its isoflavone family (soymilk, substrate concentration 10%, heat treatment of enzyme no, reaction time 3 h): 89.5% | Decomposition efficiency: ratio of each glycoside/aglycon within its isoflavone family (soymilk, substrate concentration 10%, heat treatment of enzyme no, reaction time 6 h): 95.8% | Decomposition efficiency: ratio of each glycoside/aglycon within its isoflavone family (soymilk, substrate concentration 10%, heat treatment of enzyme yes, reaction time 6 h): 6.2% | Decomposition efficiency: ratio of each glycoside/aglycon within its isoflavone family (soymilk, substrate concentration 20%, heat treatment of enzyme no, reaction time 0 h): 6.3% | Decomposition efficiency: ratio of each glycoside/aglycon within its isoflavone family (soymilk, substrate concentration 20%, heat treatment of enzyme no, reaction time 1 h): 72.2% | Decomposition efficiency: ratio of each glycoside/aglycon within its isoflavone family (soymilk, substrate concentration 20%, heat treatment of enzyme no, reaction time 3 h): 90.6% | Decomposition efficiency: ratio of each glycoside/aglycon within its isoflavone family (soymilk, substrate concentration 20%, heat treatment of enzyme no, reaction time 6 h): 94.1% | Decomposition efficiency: ratio of each glycoside/aglycon within its isoflavone family (soymilk, substrate concentration 20%, heat treatment of enzyme yes, reaction time 6 h): 5.7% | Decomposition efficiency: ratio of each glycoside/aglycon within its isoflavone family (soymilk, substrate concentration 30%, heat treatment of enzyme no, reaction time 0 h): 6.1% | Decomposition efficiency: ratio of each glycoside/aglycon within its isoflavone family (soymilk, substrate concentration 30%, heat treatment of enzyme no, reaction time 1 h): 66.9% | Decomposition efficiency: ratio of each glycoside/aglycon within its isoflavone family (soymilk, substrate concentration 30%, heat treatment of enzyme no, reaction time 3 h): 84.1% | Decomposition efficiency: ratio of each glycoside/aglycon within its isoflavone family (soymilk, substrate concentration 30%, heat treatment of enzyme no, reaction time 6 h): 92.3% | Decomposition efficiency: ratio of each glycoside/aglycon within its isoflavone family (soymilk, substrate concentration 30%, heat treatment of enzyme yes, reaction time 6 h): 6.7%
